The test system of data set [1] is CsLHT1. The note with it: 10-500 µM 15N-Glu, 10 min, 30°C; labelled compound.
Substrate in data set [2]: N[C@@H](CCC(=O)O)C(=O)O
In words: cells, lysate or membranes. The note with it: 0.5-20 mM 15N-Glu, 10 min, 30°C, labelled compound. Format: cell-based, Camellia sinensis.

Broadly, the Km is the substrate concentration at which the rate is half of its maximum.

In the case of `N[C@@H](CCC(=O)O)C(=O)O` [15N-Glu], the Km in data set [1] came out at 39.9 µM.

B1: CsLHT6 (Camellia sinensis) (protein)
chain: MVSNSPPAPKEVPTEEDQWTEKGPPREAKWWYSTFHTVTAMVGAGVLSLPYAMAYLGWGPGTMLLVFSWCITLNTMWQMIQLHECVPGVRFDHYYDLGRHAFGPKLGPWIVLPQQLIVQVGCDIVYMVTGGKCLKKFMEIVCTNCTRIKQSYWICIFGSTHFFLSQLPNFNSVSGVSLAAAIMSLSYSTIAWVGCLSKGRVENVSYAYKKTSGADSMFRVFNALGEITFAYAGHAVVLEIQATVPSTPEMPSKVPMWKGAVWAYFINAICYFPVALIGYWAFGQDVADNVLVALERPSWLIAAANLMVVIHVIGSYQVYAMPVFDLLEKAMVKRLSFPPGIGLRIIVRSAYVAFTLFVGVTFPFFGDLLGFFGGFGFAPTSYFLPSIIWLIIKKPKRFSISWFINWACIYIGVFVMLASTIGGLRNIVIDSSTYEFYS
notes: cloned from root cDNA
As to B1, the Km in data set [2] worked out at 2500 µM.

The record behind these values is article PMC8325676, “The tea plant CsLHT1 and CsLHT6 transporters take up amino acids, as a nitrogen source, from the soil of organic tea plantations” (Horticulture Research, 2021).
